Reference: patent US12415786B2, “Substituted 2-heteroarylaminobenzenes and the salts thereof and their use as herbicidal agents” (Bayer Aktiengesellschaft, priority 2019, dated 2025)

Key:
Assay type in all cases: in vivo
Matricaria inodora [1] = assay: Herbicidal post-emergence action (greenhouse pots), MATIN; details: 1280 g/ha, visual rating about 3 weeks after treatment vs untreated controls
Description: (§1) In the examples and tables below, the following abbreviations are used: • Undesired Plants/Weeds: • ABUTH: Abutilon theophrasti • AGSTE: Agrostis tenuis • AMARE Amaranthus retroflexus • ECHCG: Echinochloa crus-galli • LOLRI: Lolium rigidum • MATIN: Matricaria inodora • POAAN: Poa annua • SETVI: Setaria viridis • STEME: Stellaria media A. Herbicidal Early Post-Emergence Action Seeds of mono- and dicotyledonous weed plants were placed in plastic pots in sandy loam soil (doubly sown with in each case one species of mono- or dicotyledonous weed plants per pot), covered with soil and cultivated in a greenhouse under controlled growth conditions. 2 to 3 weeks after sowing, the test plants were treated at the one-leaf stage. The compounds of the invention, formulated in the form of wettable powders (WP) or as emulsion concentrates (EC), were applied onto the green parts of the plants as aqueous suspension or emulsion with addition of 0.5% additive at a water application rate of 600 liters per hectare (converted). After the test plants had been kept in the greenhouse under optimum growth conditions for about 3 weeks, the activity of the preparations was rated visually in comparison to untreated controls. For example, 100% activity=the plants have died, 0% activity=like untreated control plants. Tables B1-B8 below show the effects of selected compounds of the general formula (I) according to Table 1 above on various harmful plants and an application rate corresponding to 1280 g/ha, which were obtained by the experimental procedure mentioned above.

Poa annua [2] = assay: Herbicidal early post-emergence action (96-well microtiter plates), POAAN; details: 1900 g/ha, scored 9 to 12 days after treatment, 100% = plants have died, 0% = like untreated control plants
In short: (§2)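 Weed seeds grown in quartz sand in 96-well microtiter plates in a climate chamber and treated at the cotyledon stage, 5 to 7 days after sowing, with EC formulations at 2200 L/ha water and a rate equivalent to 1900 g/ha. Visual scoring after 9 to 12 days against untreated controls (0% = control, 100% = dead).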

Agrostis tenuis = assay: Herbicidal early post-emergence action (96-well microtiter plates), AGSTE; details: 1900 g/ha, scored 9 to 12 days after treatment, 100% = plants have died, 0% = like untreated control plants
In short: as §2

Poa annua [3] = assay: Herbicidal post-emergence action (greenhouse pots), POAAN; details: 1280 g/ha, visual rating about 3 weeks after treatment vs untreated controls
Description: as §1

Matricaria inodora [4] = assay: Herbicidal pre-emergence action (greenhouse pots), MATIN; details: 1280 g/ha, visual scoring after about 3 weeks vs untreated controls
In short: (§3)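 Weed seeds were sown in sandy loam and covered with soil. Compounds formulated as WP or EC were applied to the covering soil surface as aqueous suspension or emulsion with 0.5% additive at 600 L/ha water, 1280 g/ha. After about 3 weeks in the greenhouse, damage was scored visually as % versus untreated controls.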

Stellaria media [5] = assay: Herbicidal post-emergence action (greenhouse pots), STEME; details: 1280 g/ha, visual rating about 3 weeks after treatment vs untreated controls
In short: (§4)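 Activity is a visual percentage score (0% = like untreated controls, 100% = plants died) taken about 3 weeks after treatment. Plants grown in sandy loam under greenhouse conditions received 1280 g/ha onto green parts at the one-leaf stage, formulated as WP or EC with 0.5% additive.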

Stellaria media [6] = assay: Herbicidal pre-emergence action (greenhouse pots), STEME; details: 1280 g/ha, visual scoring after about 3 weeks vs untreated controls
In short: as §3

Setaria viridis [7] = assay: Herbicidal pre-emergence action (greenhouse pots), SETVI; details: 1280 g/ha, visual scoring after about 3 weeks vs untreated controls
In short: as §3

Amaranthus retroflexus [8] = assay: Herbicidal pre-emergence action (greenhouse pots), AMARE; details: 1280 g/ha, visual scoring after about 3 weeks vs untreated controls
In short: as §3

Poa annua [9] = assay: Herbicidal pre-emergence action (greenhouse pots), POAAN; details: 1280 g/ha, visual scoring after about 3 weeks vs untreated controls
In short: as §3

Lolium rigidum [10] = assay: Herbicidal pre-emergence action (greenhouse pots), LOLRI; details: 1280 g/ha, visual scoring after about 3 weeks vs untreated controls
Description: (§5) In the examples and tables below, the following abbreviations are used: • Undesired Plants/Weeds: • ABUTH: Abutilon theophrasti • AGSTE: Agrostis tenuis • AMARE Amaranthus retroflexus • ECHCG: Echinochloa crus-galli • LOLRI: Lolium rigidum • MATIN: Matricaria inodora • POAAN: Poa annua • SETVI: Setaria viridis • STEME: Stellaria media A. Herbicidal Early Post-Emergence Action Seeds of mono- and dicotyledonous weed plants were placed in plastic pots in sandy loam soil (doubly sown with one species each of mono- or dicotyledonous weed plants per pot) and covered with soil. The compounds of the invention, formulated in the form of wettable powders (WP) or as emulsion concentrates (EC), were then applied onto the surface of the covering soil as aqueous suspension or emulsion with addition of 0.5% additive at a water application rate of 600 liters per hectare (converted). After the treatment, the pots were placed in a greenhouse and kept under good growth conditions for the test plants. After about 3 weeks, the effect of the preparations was scored visually in comparison with untreated controls as percentages. For example, 100% activity=the plants have died, 0% activity=like untreated control plants. Tables C1-C8 below show the effects of selected compounds of the general formula (I) according to Table 1 above on various harmful plants and an application rate corresponding to 1280 g/ha, which were obtained by the experimental procedure mentioned above.

Setaria viridis [11] = assay: Herbicidal post-emergence action (greenhouse pots), SETVI; details: 1280 g/ha, rated after about 3 weeks, 100% = plants have died, 0% = like untreated control plants
Description: as §1

Amaranthus retroflexus [12] = assay: Herbicidal post-emergence action (greenhouse pots), AMARE; details: 1280 g/ha, visual rating about 3 weeks after treatment vs untreated controls
In short: as §4

Abutilon theophrasti [13] = assay: Herbicidal pre-emergence action (greenhouse pots), ABUTH; details: 1280 g/ha, visual scoring after about 3 weeks vs untreated controls
Description: as §5

Echinochloa crus-galli [14] = assay: Herbicidal pre-emergence action (greenhouse pots), ECHCG; details: 1280 g/ha, visual scoring after about 3 weeks vs untreated controls
In short: as §3

Abutilon theophrasti [15] = assay: Herbicidal post-emergence action (greenhouse pots), ABUTH; details: 1280 g/ha, visual rating about 3 weeks after treatment vs untreated controls
In short: as §4

Echinochloa crus-galli [16] = assay: Herbicidal post-emergence action (greenhouse pots), ECHCG; details: 1280 g/ha, rated after about 3 weeks, 100% = plants have died, 0% = like untreated control plants
Description: as §1

Lolium rigidum [17] = assay: Herbicidal post-emergence action (greenhouse pots), LOLRI; details: 1280 g/ha, rated after about 3 weeks, 100% = plants have died, 0% = like untreated control plants
Description: as §1

Row | Structure (SMILES) | herbicidal activity MATIN (Matricaria inodora [1]) [%] | POAAN (herbicidal activity, scored visually in comparison to untreated controls) (Poa annua [2]) [%] | AGSTE (herbicidal activity, scored visually in comparison to untreated controls) (Agrostis tenuis) [%] | herbicidal activity POAAN (Poa annua [3]) [%] | herbicidal activity MATIN (Matricaria inodora [4]) [%] | herbicidal activity STEME (Stellaria media [5]) [%] | herbicidal activity STEME (Stellaria media [6]) [%] | herbicidal activity SETVI (Setaria viridis [7]) [%] | herbicidal activity AMARE (Amaranthus retroflexus [8]) [%] | herbicidal activity POAAN (Poa annua [9]) [%] | herbicidal activity LOLRI (Lolium rigidum [10]) [%] | SETVI (herbicidal activity, rated visually in comparison to untreated controls) (Setaria viridis [11]) [%] | herbicidal activity AMARE (Amaranthus retroflexus [12]) [%] | herbicidal activity ABUTH (Abutilon theophrasti [13]) [%] | herbicidal activity ECHCG (Echinochloa crus-galli [14]) [%] | herbicidal activity ABUTH (Abutilon theophrasti [15]) [%] | ECHCG (herbicidal activity, rated visually in comparison to untreated controls) (Echinochloa crus-galli [16]) [%] | LOLRI (herbicidal activity, rated visually in comparison to untreated controls) (Lolium rigidum [17]) [%]
1 | N#Cc1cccc(Nc2ncc(Cl)cc2F)c1Oc1ccc(F)cc1 [Example 1-139] | 100 | 80 | 100 | 100 | – | – | – | – | – | – | – | – | – | – | – | – | – | –
2 | N#Cc1cccc(Nc2ncc([N+](=O)[O-])cn2)c1Oc1ccc(F)cc1 [Example 1-306] | 100 | 80 | 100 | – | 90 | 100 | 100 | 100 | 100 | – | – | – | – | – | – | – | – | –
3 | N#Cc1cccc(Nc2ncc(F)cn2)c1Oc1ccc(Cl)nc1 [Example 3-54] | – | 100 | 100 | 100 | 100 | 90 | 100 | 100 | 100 | 100 | 100 | 90 | 100 | 100 | 100 | 100 | – | –
4 | Fc1ccc(Oc2c(Cl)cccc2Nc2ncc(Cl)cn2)cc1 [Example 1-235] | 80 | 100 | 100 | 100 | 100 | 100 | 100 | 100 | 100 | 100 | – | – | 100 | – | 90 | 100 | 100 | –
5 | N#Cc1cccc(Nc2ncccn2)c1Oc1ccc(F)cc1 [Example 1-248] | – | 100 | 100 | 100 | 100 | 100 | 100 | 100 | 100 | 100 | 100 | – | 100 | 100 | 100 | 100 | 100 | –
6 | Fc1ccc(Oc2c(F)cccc2Nc2ncc(Cl)cn2)cc1 [Example 1-204] | – | 100 | 100 | 100 | 90 | 100 | – | 100 | 100 | 100 | – | 100 | – | – | 100 | 100 | 100 | 90
